Literature values, collected in patent US20210145778A1, “Stable Liquid Compositions of Melphalan” (Orbicular Pharmaceutical Technologies Pvt. Ltd., priority 2018, published 2021).

N[C@@H](Cc1ccc(N(CCCl)CCCl)cc1)C(=O)O [Melphalan, L-phenylalanine mustard]
Stability in aqueous solutions: poor stability
